Reference: patent EP0406428B1, “PEPTIDE DERIVATIVES AND THEIR USE” (ASAHI GLASS COMPANY LTD., priority 1988, dated 1995)
Residues, ends and D or L forms follow the SMILES beside them.

Legend:
trypsin = experiment: Peptide map: decomposition with trypsin, HPLC analysis; assay type: in vitro ADME; settings: Tris-HCl 100 mM pH 8.5, 37°C, 24 hours, compared with linear peptide (GRGDSPA)
Method: Peptide was dissolved in 10 mg/mℓ of distilled water. 20 »l of this solution was diluted with addition of 180 »l of a buffer solution (Tris-HCl, 100 mM, pH 8.5). To this diluted solution, 5 »l of a trip solution (1 mg/mℓ […], CaCl₂ 10 mM) was added, and the mixture was kept at a temperature of 37°C for 24 hours. Then, 10 »l of 2N HCl was added to this mixed solution to complete the reaction. Out of this reaction liquid, 50 »l was provided for high performance liquid chromatography HPLC for its analysis. Condition for Analysis HP HPLC: Waters Model 510 Column: YMC-ODS Detection: A₂₁₄ Elution: Liquid A - 0.1% aqueous solution of TFA Liquid B - 0.1% acetonitrile solution of TFA Linear concentration gradient of: 0% B → 30% B (0 min.) (30 min.) Figure 1 is a graphical representation showing the result of analysis of the cyclic peptide synthesized in accordance with this Example. Also, the linear peptide (GRGDSPA) synthesized in accordance with (14) above was tested under the same conditions as mentioned above. The result of its analysis is shin in Figure 2.

blood platelet = experiment: Decrease in number of blood platelet in surgical operation using artificial heart and lung; assay type: in vivo; settings: surgical operations using artificial heart and lung; control PBS
Method: The following Table indicates the results of examination of decrease in the number of the blood platelet, when 100 »g (per 1 kg of weight/minute) of [formula] was added for the purpose of the surgical operation. As the control, there was added PBS in place of peptide.

SMILES | decomposition by treatment with trypsin (trypsin) | inhibiting aggregation of blood platelet (blood platelet)
C[C@@H]1NC(=O)[C@@H]2CCCN2C(=O)[C@H](CO)NC(=O)[C@H](CC(=O)O)NC(=O)CNC(=O)[C@H](CCCNC(=N)N)NC(=O)CNC1=O [Example 1] (cyclo(RGDSPAG)) | difficult to undergo further decomposition | 
C[C@@H]1NC(=O)[C@@H]2CCCN2C(=O)[C@H](CO)NC(=O)[C@H](CC(=O)O)NC(=O)CNC(=O)[C@H](CCCNC(=N)N)NC(=O)CNC1=O [Example I00042] (cyclo(RGDSPAG)) |  | capability of inhibiting such aggregation at its low concentration
